{"source": "patent US9555086B2", "about": "“Compositions and methods for inducing an immune response” (The Regents of the University of Michigan, priority 2010, dated 2017)", "key": {"NO signaling in DC": {"system": "NO signaling in DC", "assay": "NO production in bone marrow-derived CD11c+ dendritic cells (DAF-2DA)", "format": "cell-based, mouse", "details": "100 μg/ml 15mer peptide; Balb/c DC; compared to ISL-negative peptides", "protocol": "Bone marrow cells from Balb/c (A and B) or DBA/1 (C and D) mice were differentiated into DCs in culture with GM-CSF ([…]) and IL-4 ([…]). CD11c+ DCs were purified using magnetic beads with >95% purity. DCs were then incubated with SE-positive (65-79*0401 or 65-79*0404), or with SE-negative (65-79*0402 or 65-79*0403) 15mer peptides and NO production was measured as described below. The results are expressed as mean±SEM fluorescence units (FU), or FU per minute. *p<0.01 compared to all ligand controls.\nDCs play a key role in immune regulation. […] DC cells were incubated over time with 100 μg/ml of ISL-positive or -negative 15mer peptides, and NO production was measured.\nTo determine the rate of NO production, cells were loaded with 20 μM of the fluorescent NO probe 4,5-diaminofluorescein diacetate (DAF-2DA) and the fluorescence level was recorded every 5 minutes over a period of 500 minutes using a Fusion αHT system (PerkinElmer Life Sciences) at an excitation wavelength of 488 nm and emission wavelength of 515 nm. To determine IDO enzymatic activity, the generation of its product, kynurenine was measured (Takikawa et al. 1988. J Biol Chem 263:2041-2048.; herein incorporated by reference in its entirety). Cytokine concentrations were measured in cell culture supernatants using a Luminex platform (Millipore Corporation, Danvers, Mass.). […]"}, "CD8+ and CD8− DC": {"system": "CD8+ and CD8− DC", "assay": "Cytokine production by splenic DC subsets (Luminex)", "format": "cell-based, mouse", "protocol": "Splenic CD8+ and CD8− DC were isolated from DBA/1 mice as above and cultured in 96-well plates over time in the presence or absence of ISL-positive (65-79*0401) or ISL-negative (65-79*0402) peptides (50 μg/ml). At various time points thereafter, supernatants were collected and assayed for cytokine content, using the Luminex platform.\nDBA/1 splenic unfractionated CD11c+ DCs (CD11c+), or their purified CD11c+CD8+ DCs (CD8+) or CD11c+CD8− DCs (CD8−) subsets were cultured with the ISL 65-79*0401 or ISL-negative control 65-79*0402 or medium. Supernatants were collected at different time points and assayed for cytokine content using a Luminex platform.\nTo determine the rate of NO production, cells were loaded with 20 μM of the fluorescent NO probe 4,5-diaminofluorescein diacetate (DAF-2DA) and the fluorescence level was recorded every 5 minutes over a period of 500 minutes using a Fusion αHT system (PerkinElmer Life Sciences) at an excitation wavelength of 488 nm and emission wavelength of 515 nm. To determine IDO enzymatic activity, the generation of its product, kynurenine was measured (Takikawa et al. 1988. J Biol Chem 263:2041-2048.; herein incorporated by reference in its entirety). Cytokine concentrations were measured in cell culture supernatants using a Luminex platform (Millipore Corporation, Danvers, Mass.). In some experiments, cytokines were determined using ELISA (Quantikine®, R&D Systems, Minneapolis, Minn.) following the manufacture's instruction."}, "Th17 cells [1]": {"system": "Th17 cells", "assay": "ISL polarizing effect in vivo (CII in CFA immunization)", "parameters": "species or system DBA/1 mice", "protocol": "(A) DBA/1 mice were immunized with CII in CFA in the presence of PBS, 65-79*0401 or 65-79*0402. On day 7, cells from draining lymph nodes were isolated, cultured for 6 hours with PMA, Ionomycin and Brefeldin A and then stained with anti-mouse CD4, IL17A and IFN-γ as above. On the left: Representative dot plots showing percentages of IL17A+ and IFN-γ+ cells obtained from gated CD4+ cells. On the right, bar graphs showing results as mean±SD of duplicate experiments. (B) DBA/1 and CII-TCR Tg mice were immunized as in (A). On day 7, splenic cells were isolated and cultured with the synthetic peptide CII260-267 (5 μg/ml). Supernatants were collected every 24 hours and assayed for IL-17 levels by ELISA.\nMice were injected subcutaneously in the footpad with 100 μg of chicken collagen type II (CII) (Chondrex, Inc, Redmond, Wash.) emulsified in CFA (4 mg/ml). The inoculums contained 10 μg of either ISL-positive 65-79*0401 or ISL-negative 65-79*0402 ligands in PBS, or an equal volume of PBS alone. Animals were sacrificed 7 days after immunization. For Th17 quantification studies, inguinal and popliteal lymph nodes were collected and single cell suspensions were prepared. Unfractionated lymph node cells were cultured with PMA, Ionomycin and Brefeldin A for 6 hours as above. Cells were stained with FITC anti-mouse CD4 or isotype controls, followed by fixation and permeabilization using a Cytofix-Cytoperm™ kit. After permeabilization, intracellular staining was performed using PE-conjugated anti-mouse IL17A and APC-conjugated anti-mouse IFN-γ and cells were analyzed by flow cytometry as above. To measure IL-17 production, splenocytes from mice immunized as above were stimulated in vitro with 5 μg of CII259-273 peptide. At different time points thereafter, supernatants were collected and assayed for IL-17 by ELISA as above."}, "Th17 cells [2]": {"system": "Th17 cells", "assay": "Expansion of pathogen-specific Th17 cells in immunized CII-TCR Tg mice", "format": "in vivo"}, "trypsin and chymotrypsin": {"system": "trypsin and chymotrypsin", "assay": "Trypsin/chymotrypsin stability assay", "details": "after 30 minutes, 37° C., pH 8"}}, "note": "“Also recorded” adds a separate entry of the source."}
{"substance": "H-KDLLEQKRAAVDTYC-NH2 [65-79*0401]", "values": [{"measurement": "NO production", "setting": "NO signaling in DC", "result": "much more robust NO production"}, {"measurement": "IL-6 / cytokine production", "setting": "CD8+ and CD8− DC; CD11c+CD8+ DCs, 50 μg/ml peptide", "result": "no production of any cytokines; also recorded: not in the CD11c+CD8+ subset"}, {"measurement": "time point of IL-6 peak", "setting": "CD8+ and CD8− DC; CD11c+CD8− DCs", "result": 24, "unit": "h"}, {"measurement": "IL-6 production", "setting": "CD8+ and CD8− DC; CD11c+CD8− DCs, 50 μg/ml peptide", "result": "robust production"}, {"measurement": "production of other cytokines (IL-4, IL-10, IL-12, IL-1β, TGFβ)", "setting": "CD8+ and CD8− DC; splenic DCs", "result": "did not show any increased production"}, {"measurement": "Th17 abundance in draining lymph nodes", "setting": "Th17 cells [1]; 10 μg co-administered with CII in CFA, footpad, day 7", "result": "dramatically increased"}, {"measurement": "CII-stimulated IL-17 production by splenocytes", "setting": "Th17 cells [1]; compared to mice co-immunized with 65-79*0402", "result": "significantly more robust"}, {"measurement": "frequency of Th1 (IFNγ-positive) cells", "setting": "Th17 cells [1]; draining lymph nodes, day 7", "result": "no change"}, {"measurement": "total antigen non-stimulated Th17 cells in draining lymph nodes", "setting": "Th17 cells [2]; 100 μg i.p. days 0, 7, 14, 21, day 42", "result": "significant increase"}, {"measurement": "percentage of Th17 cells after 6 days in culture", "setting": "Th17 cells [2]; lymph node cells re-stimulated with bacterial antigen PPD", "result": "13.1±0.5", "unit": "%"}, {"measurement": "percentage of Th17 cells after 6 days in culture", "setting": "Th17 cells [2]; lymph node cells stimulated with CII", "result": "8.4±0.5", "unit": "%"}, {"measurement": "percentage of Th17 cells after 6 days in culture", "setting": "Th17 cells [2]; lymph node cells, without any antigen stimulation", "result": "5.4±0.4", "unit": "%"}, {"measurement": "degradation by trypsin/chymotrypsin (HPLC)", "setting": "trypsin and chymotrypsin", "result": "degraded completely"}]}
